Assay results as given in paper PMC11436758, “Computer-aided drug design to generate a unique antibiotic family” (Nature Communications, 2024).
Values after ≈ are worked out from the molar mass of the structure shown.

System: MRSA (ATCC 33591)
Assay: MIC, CLSI broth microdilution
Type: cell-based, S. aureus
Conditions: three individual replicates
Experimental: The medium employed for the assay was Mueller Hinton II Broth (MHB II; Becton-Dickinson, Sparks, MD, USA). Agar plates used for the organisms were trypticase soy agar plus 5% sheep blood (BD; Sparks, MD, USA). MIC assay plates were prepared using the CLSI broth microdilution procedure. Automated liquid handlers (Multidrop 384, Biomek 2000 and Biomek FX) were used to conduct serial dilutions and liquid transfers. A standardized inoculum of each organism was prepared per CLSI methods. Suspensions were prepared to equal a 0.5 McFarland standard, followed by a 1:20 dilution in test media. The inocula were dispensed into sterile reservoirs divided by length (Beckman Colter) and the Biomek 2000 was used to inoculate the plates. Daughter plates were placed on the Biomek 2000 work surface in reverse orientation so that inoculation took place from low to high drug concentration. The Biomek 2000 delivered 10 μL of the diluted suspension into each well. These inoculations yielded a final cell concentration in the daughter plates of ~5 × 10^5 colony-forming units/mL in each well. The wells of the daughter plates ultimately contained 185 μL of broth, 5 μL of drug solution, and 10 μL of bacterial inoculum. Plates were covered with a sterile lid on the top plate, placed in plastic bags, and incubated at 35 °C for ~18 h. The microplates were viewed from the bottom using a plate viewer and the MIC was read. The MIC was recorded as the lowest concentration of drug that inhibited visible growth of the organism. Uninoculated solubility control plates were also observed for evidence of drug precipitation.

CC(C)c1cc(Cl)ccc1-c1cc(-c2nnn[nH]2)c(-c2ccc(Cl)cc2C(C)C)s1 [DNM0547]
MIC: 2 µg/mL (≈ 4.37 µM)
